According to patent US20140271734A1, “BILE ACID RECYCLING INHIBITORS FOR TREATMENT OF BARRETT'S ESOPHAGUS AND GASTROESOPHAGEAL REFLUX DISEASE” (LUMENA PHARMACEUTICALS, INC., priority 2013, published 2014):
Marks after values point to notes of the source that are not given here.

Experiments:
[1] = tested on: fecal total bile acid (FBA); assay: Fecal bile acids in dogs, LUM001 daily; format: in vivo, beagle dogs; conditions: 14 Days; for Weight-Adjusted Fecal Total Bile Acids Excretion: n=8
Method: Healthy female and male beagle dogs in the age range of 8 to 10 months were used. The animals were acclimated for at least four weeks before dose administration. Four female and four male dogs per dose group (groups 2-5) were given single daily doses of LUM001 at 1, 4, 12 and 30 mg free form/kg for 13 days. Animals in the control group (group 1) were given the same number of empty capsules as the animals of group 5 to treat all dose groups the same.
Fecal samples were collected to determine the fecal total bile acid (FBA) concentration for each animal. Fecal collections were made during the final 72 hours of the study, for three consecutive 24-hour periods between 9:00 am and 10:00 am each day, prior to dosing and feeding. The separate daily collections from each dog were weighed, combined and homogenized with distilled water in a food processor to generate a homogeneous slurry. Homogenate (1.4 g) was extracted in a final concentration ratio of 2:0.6 of 50% (v/v) tertiary butanol/distilled water for 45 minutes in a 37° C. water bath and subjected to centrifugation for 13 minutes at 2000×g. The concentration of bile acids (mmolesgram homogenate) was determined using a 96-well enzymatic assay system. Aliquots of the fecal extracts (20 μl) were added to two sets of triplicate wells in a 96 well assay plate. A standardized sodium taurocholate solution and a standardized fecal extract solution (previously made from pooled samples and characterized for its bile acid concentration) were also analyzed for assay quality control. Aliquots of sodium taurocholate (20 μl), were serially diluted to generate a standard curve containing 30-540 nmoles/well. A 230 μl aliquot of reaction mixture containing 1M hydrazine hydrate, 0.1 M pyrophosphate and 0.46 mg/ml NAD was added to each well. Subsequently, a 50 μl aliquot of either 3a-hydroxysteroid dehydrogenase enzyme (HSD; 0.8 units/ml) or assay buffer (0.1 M sodium pyrophosphate) was added to one each of the two sets of triplicates. Following 60 minutes of incubation at room temperature, the optical density at 340 nm was measured and the mean of each set of triplicate samples was calculated. The difference in optical density±HSD enzyme was used to determine the bile acid concentration (mM) of each sample based on the sodium taurocholate standard curve. The bile acid concentration of the extract (mmolesgram homogenate), the total weight of the fecal homogenate (grams) and the body weight of the dogs (kg) were used to calculate the corresponding FBA concentration in mmoles/kg/day for each animal. All reagents used for the assay were obtained from Sigma Chemical Co., St. Louis, Mo. (HSD—catalog # H-1506; NAD—catalog # N1636; sodium taurocholate—catalog # T-4009). A one-tailed, paired Student's t-test was used to determine the statistical significance of changes in FBA concentration in treated animals compared to pretreatment values and between treatment groups.

[2] = Systemic exposure of LUM001 in patients under 18 years (study NB-00-02-014); format: in vivo, human; conditions: for Average serum drug exposure: day eight
Method: LUM001 has been administered to forty patients under the age of 18 years old. […] The drug was administered once-a-day (QD) in the morning for fourteen days. […] These doses are similar to those using to treat patients with Barrett's esophagus or GERD.

[3] = Pharmacokinetics of LUM002 following single administration to rats; format: in vivo, Sprague Dawley Rat; conditions: for F: PO 20 mg/kg free acid, topmost estimate assuming 1 ng/mL over 24 h and dose-linear exposure
Method: To each rat either a single oral (PO; 20 mg/kg free acid) or a single intravenous (IV; 2 mg/kg free acid) dose of [^14Cl]LUM002 was administered. For PO and IV administration, the test substance was prepared with the adequate amount of water to reach a solution with a concentration of approximately 4 mg/g (PO) and 1 mg/g (IV). Oral administration was a gavage using a stomach tube and IV administration was a bolus injection into the tail vein. Exact doses administered to animals were calculated according to syringe weights.
The doses of radioactivity actually administered were determined by using standards prior to and after treatment of the animals. Blood—Animals were anaesthetized (Isoflurane) for blood sampling (3 animals/time point) and then euthanized by […]. Blood samples (maximal volume from each animal approx. 8 mL) were withdrawn from the abdominal aorta into containers containing a small amount of lithium heparin. and samples were centrifuged for 2 minutes at 1540 g. Aliquots (100 μL) of blood were used for hematocrit determination. Animals for the control groups (male and/or female) were used as predose animals for sampling of untreated biological samples (blood and plasma or liver, myocardium, kidneys only from male control animals). Plasma—To obtain plasma, blood samples were centrifuged for 10 minutes and stored cooled before final division.
Bioanalytical analysis—50 μL of plasma samples were placed into an 1.5 mL reaction tube. 5 μL methanol was added to each sample. For protein precipitation, 100 μL of the internal standard working solution (100 ng/mL of benzyl-13C6-LUM002 in acetonitrile) and 50 μL acetonitrile were added. In case of double blank samples, pure acetonitrile was added. Tubes were sealed and mixed thoroughly for 10 seconds. The tubes were centrifuged for 5 minutes at ≧3000 g. 50 μL of the clear supernatant was transferred into an autoinjector vial and were diluted with 50 μL deionized water. Analysis of samples was performed by using LC-MSMS (injection volume 50-75 μL) with a lower limit of quantification in the assay of 1 ng/mL for LUM002.

plasma lipase = assay: Plasma lipase in ZDF rats, week 3; format: in vivo; conditions: twice daily oral gavage
[4] = M, IV bolus injection 2 mg/kg free acid

Compound: CCCCC1(CCCC)CS(=O)(=O)c2ccc(N(C)C)cc2[C@@H](c2ccc(OCc3ccc(C[N+]45CCN(CC4)CC5)cc3)cc2)[C@H]1O [LUM001]
- Weight-Adjusted Fecal Total Bile Acids Excretion, % change from vehicle group ([1]; 1 mg/kg/day): (+63) %
- Weight-Adjusted Fecal Total Bile Acids Excretion ([1]; 1 mg/kg/day): 96 ± 9 µmol/day/kg
- Weight-Adjusted Fecal Total Bile Acids Excretion, % change from vehicle group ([1]; 4 mg/kg/day): (+137) %
- Weight-Adjusted Fecal Total Bile Acids Excretion ([1]; 4 mg/kg/day): 140 ± 6 µmol/day/kg
- Weight-Adjusted Fecal Total Bile Acids Excretion, % change from vehicle group ([1]; 12 mg/kg/day): (+158) %
- Weight-Adjusted Fecal Total Bile Acids Excretion ([1]; 12 mg/kg/day): 152 ± 13 µmol/day/kg
- Weight-Adjusted Fecal Total Bile Acids Excretion, % change from vehicle group ([1]; 30 mg/kg/day): (+183) %
- Weight-Adjusted Fecal Total Bile Acids Excretion ([1]; 30 mg/kg/day): 167 ± 15 µmol/day/kg
- Average serum drug exposure ([2]; Subject 0304, 1.0 mg QD (24.3 μg/kg)): 0.0 ng/mL
- Average serum drug exposure ([2]; Subject 0308, 1.0 mg QD (28.9 μg/kg)): 0.0 ng/mL
- Average serum drug exposure ([2]; Subject 0309, 1.0 mg QD (35.0 μg/kg)): 0.0 ng/mL
- Average serum drug exposure ([2]; Subject 0410, 2.5 mg QD (42.0 μg/kg)): 0.0 ng/mL
- Average serum drug exposure ([2]; Subject 0510, 5.0 mg QD (168.4 μg/kg)): 0.0 ng/mL
- Systemic exposure of LUM001 ([2]; patients under 18 years, QD, measured on day eight): confirmed to be minimally absorbed

Compound: CCCC[C@]1(CC)CS(=O)(=O)c2ccc(N(C)C)cc2[C@@H](c2cccc(NC(=O)N[C@@H]3O[C@H](COS(=O)(=O)[O-])[C@@H](O)[C@H](OCc4ccccc4)[C@H]3O)c2)[C@H]1O.CCO.O.[K+] [LUM002, potassium((2R,3R,4S,5R,6R)-4-benzyloxy-6-{3-[3-((3S,4R,5R)-3-butyl-7-dimethylamino-3-ethyl-4-hydroxy-1,1-dioxo-2,3,4,5-tetrahydro-1H-benzo[b]thiepin-5-yl)-phenyl]-ureido}-3,5-dihydroxy-tetrahydro-pyran-2-ylmethyl)sulphate ethanolate, hydrate]
- F ([3]; F): <1.3^e %
- Cmax [3, 4]: 1036 ng/mL
- Vss [3, 4]: 3.890 L/kg
- t1/2 [3, 4]: 10.7 h
- Tmax ([3]; M, IV bolus injection 2 mg/kg free acid, extrapolated to t = 0): 0^c h
- F ([3]; M): <1.3^e %
- LUM002 dose systemically absorbed ([3]; rats, single PO 20 mg/kg vs IV 2 mg/kg free acid): Less than 2%
- Plasma lipase (plasma lipase): statistically significant reductions in plasma lipase at higher doses
